Measurements reported in patent US5221616A, “Prevention of spontaneous complement activation in mammalian biological fluids” (Quidel Corporation, priority 1988, dated 1993).
“Also recorded” adds a separate entry of the source.

What was measured:
[1] = test system: C4; assay: C4d fragment EIA: heparin plasma or heparin whole blood stored on ice or at 22° C.; assay type: biochemical, human
Procedure: The first set of experiments addressed the question of how long can a human complement-containing sample be incubated at various temperatures in vitro before evidence of spontaneous C activation can be measured. In FIG. 16 results are presented in which freshly drawn EDTA-NHP, heparin plasma, heparin whole blood or EDTA whole blood were stored on ice (1° C.) or at 22° C. […] In the case of the whole blood samples, the cells were removed by centrifugation before the plasma supernatants were collected and stored at -70° C. […] The other components of the invention composition are also required in order to obtain full protection against spontaneous C activation. This point will be covered in further detail below.

[2] = test system: C3, Factor B, or the terminal complement proteins; assay: effect of sodium heparin on storage behavior of other complement proteins; assay type: biochemical, human; conditions: sodium heparin in the stabilizing formulation
[3] = test system: complement; assay: protection against spontaneous complement activation in complement-containing samples during in vitro storage (summary of fragment EIAs); assay type: biochemical, human; conditions: for acceptable range of final concentration at which spontaneous C activation will be prevented: ingredient of the formulation; for final concentration identified as particularly effective: added to a complement-containing sample; for range of final concentrations found to provide protection against spontaneous complement activation: complement-containing samples during in vitro storage
Procedure: A method for screening compounds to determine the complement preventing effectiveness thereof is described in detail in the course of the following experimental description and discussion. The method essentially comprises treating complement-containing samples with various doses of the test compounds, storing the thus-treated sample at conventional storage temperature for a minimum of about 48 hours and determining the extent of complement activation which occurs during the storage period by performing assays on the sample for various complement activation products. The results are compared with determination of the level of the same activation products at the beginning of the storage period, i.e., a non-incubated control sample. A non-treated control, comprising an identical sample diluted with phosphate buffered saline (PBS) in a volume ratio identical to that of the sample and polyhydroxyl solution is similarly assayed.
(§1) The concentrations, expressed as μg analyte/mL, of a number of different activation products of spontaneous complement activation were measured in the course of these experiments. In an effort to normalize the data obtained from the various determinations so that the results from different assays could be directly compared to one another, a percent protection value was calculated for each analyte measured. The precent protection values were calculated by dividing the μg analyte/mL in the non-incubated, time-zero control sample by the μg analyte/mL in the experimental sample, multiplied by 100%. A percent protection value of 70 to 130% for any given analyte measured in an experimental sample was considered to indicate that the invention formulation tested was fully effective at providing protection against the occurrence of spontaneous complement activation. Ideally, the effective composition formulation would provide full protection against the occurrence of spontaneous complement activation in a complement-containing sample for all of the analytes measured. In fact, this was the case with several polyhydroxyl compounds when they were present in sufficiently high concentrations in a preferred embodiment of the invention.
A percent protection value range of 70 to 130% was used as a criterion to define that a given invention embodiment was able to provide full protection against spontaneous complement activation for the following reasons: The coefficient of variation for the EIA kits employed in these studies ranged from 10-30% when analyte levels were measured in the very low range of values found in freshly-drawn normal human plasma samples. Therefore, in order to ensure that a given result fell within the variability range of the assays employed, a percent protection value between 70 and 130% was considered to represent a fully protective effect.

[4] = test system: C4; assay: polyhydroxyl compounds in Buffer B mixed with EDTA-NHP: C4d fragment EIA; assay type: biochemical, human; conditions: 22° C. for 48 hr
Procedure: (§2) An extensive series of experiments were conducted to examine the ability of a large variety of polyhydroxyl compounds to prevent the spontaneous activation of C in EDTA-NHP during in vitro storage at 22° C for 48 hr. EDTA-NHP was mixed with an equal volume of Buffer B containing the polyhydroxyl compound to be tested. In these experiments Buffer B consisted of 40 mM EDTA and 30 IU sodium heparin/mL dissolved in deionized water, pH 7.2. The final concentration of polyhydroxyl compound dissolved in Buffer B varied for each compound due to differences in solubility. For each set of experiments, EDTA-NHP was also diluted and mixed with an equal volume of PBS (untreated control). The EDTA-NHP samples mixed with each polyhydroxyl compound dissolved in Buffer B and the corresponding untreated controls were incubated at 22° C. for 48 hr, stored at -70° C. and subsequently assayed for C4d, iC3b, C3d,g/iC3b and Bb complement fragment levels as well as for circulating immune complex levels using the Raji Cell Replacement EIA. […] This conclusion was based upon the iC3b percent protection values determined for each of the polyhydroxyl compounds (treated samples) as listed in FIG. 14.
as §1

[5] = biological target: T1, C3 (Homo sapiens, UniProt P01024); assay: polyhydroxyl compounds in Buffer B mixed with EDTA-NHP: iC3b and C3d,g/iC3b fragment EIA; assay type: biochemical; conditions: 22° C. for 48 hr
T1 construct: 250 μL of freshly drawn EDTA-normal human plasma (EDTA-NHP); from tissue; host or cells: normal human blood plasma (EDTA plasma; in A12 also citrate and heparin plasma)
T1 sequence (P01024 672-1663 limits assumed): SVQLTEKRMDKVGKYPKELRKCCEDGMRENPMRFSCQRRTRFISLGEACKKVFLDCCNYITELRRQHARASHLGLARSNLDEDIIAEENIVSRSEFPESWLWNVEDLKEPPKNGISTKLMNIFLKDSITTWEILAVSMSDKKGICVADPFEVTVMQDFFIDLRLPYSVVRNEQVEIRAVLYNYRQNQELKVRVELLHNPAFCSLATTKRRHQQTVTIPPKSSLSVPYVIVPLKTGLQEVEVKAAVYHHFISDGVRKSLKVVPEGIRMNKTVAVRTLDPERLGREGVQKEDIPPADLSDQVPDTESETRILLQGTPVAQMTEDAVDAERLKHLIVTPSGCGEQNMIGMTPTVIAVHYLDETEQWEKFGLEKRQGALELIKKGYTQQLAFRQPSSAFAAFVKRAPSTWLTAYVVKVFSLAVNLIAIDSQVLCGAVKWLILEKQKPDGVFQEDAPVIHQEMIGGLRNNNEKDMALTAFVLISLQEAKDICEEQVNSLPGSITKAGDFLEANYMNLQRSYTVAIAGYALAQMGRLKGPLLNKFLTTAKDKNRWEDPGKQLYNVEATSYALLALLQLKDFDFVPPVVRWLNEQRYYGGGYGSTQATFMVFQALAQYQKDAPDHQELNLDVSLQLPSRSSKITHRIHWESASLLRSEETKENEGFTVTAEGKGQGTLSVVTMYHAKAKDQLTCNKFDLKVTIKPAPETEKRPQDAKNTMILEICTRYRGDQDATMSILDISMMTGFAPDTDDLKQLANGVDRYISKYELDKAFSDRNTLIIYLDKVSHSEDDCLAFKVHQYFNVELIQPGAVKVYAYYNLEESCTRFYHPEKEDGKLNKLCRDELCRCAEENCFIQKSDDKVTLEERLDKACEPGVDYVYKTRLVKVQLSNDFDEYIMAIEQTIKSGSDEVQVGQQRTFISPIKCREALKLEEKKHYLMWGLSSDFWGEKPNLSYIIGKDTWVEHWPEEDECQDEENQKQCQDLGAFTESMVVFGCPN
T1 sequence (P01024 23-667 limits assumed): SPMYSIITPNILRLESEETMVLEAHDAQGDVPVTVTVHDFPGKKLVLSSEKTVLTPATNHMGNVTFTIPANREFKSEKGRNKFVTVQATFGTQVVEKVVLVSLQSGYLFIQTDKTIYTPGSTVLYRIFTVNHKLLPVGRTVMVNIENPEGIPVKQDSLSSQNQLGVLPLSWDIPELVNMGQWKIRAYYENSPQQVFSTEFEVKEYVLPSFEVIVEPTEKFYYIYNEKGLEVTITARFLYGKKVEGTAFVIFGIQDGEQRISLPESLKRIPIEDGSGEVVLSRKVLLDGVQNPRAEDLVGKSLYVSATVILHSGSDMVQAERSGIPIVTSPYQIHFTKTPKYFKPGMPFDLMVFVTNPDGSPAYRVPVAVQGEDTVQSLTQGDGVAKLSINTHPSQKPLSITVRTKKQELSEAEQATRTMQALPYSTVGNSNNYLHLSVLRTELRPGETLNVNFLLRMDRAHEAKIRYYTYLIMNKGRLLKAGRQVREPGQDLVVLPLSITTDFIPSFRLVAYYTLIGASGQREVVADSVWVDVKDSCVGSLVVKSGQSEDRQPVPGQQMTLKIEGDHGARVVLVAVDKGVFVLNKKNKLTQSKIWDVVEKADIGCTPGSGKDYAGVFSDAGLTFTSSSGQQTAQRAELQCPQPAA
Procedure: as §2, §1
A plasma dilution of 1:50 and a serum dilution of 1:100 were used in the iC3b fragment EIA tests. The immunochemical reaction specificity of MoAb 013III-1.1.6.1 has been published previously in abstract form, W. P. Kolb, et al., Fed. Proc. 44:990 (1985).
A plasma dilution of 1:250 and a serum dilution of 1:500 were used in the C3d,g/iC3b EIA tests. […] 135:2015-2019 (1985); Y. Kanayama, et al., J. Immunol. Meth. 88:33-36 (1986). The immunochemical reaction specificity of the Cytotech MoAb 013III-31.4.3.2.2has been published previously in abstract form, W. P. Kolb, et al., FASEB Journal 2:A1834 (1988).

[6] = biological target: T1, C3; assay: iC3b fragment EIA: spontaneous C3 activation in EDTA-NHP incubated with increasing concentrations of polyhydroxyl compound in water; assay type: biochemical; conditions: 22° C. for 48 hr; for spontaneous iC3b fragment production: increasing final concentrations of compound (galactose up to 2M)
Procedure: FIG. 1. […] 250 μL of freshly drawn EDTA-normal human plasma (EDTA-NHP) was mixed with 0 to 250 μL of 4M β-D-glucose dissolved in deionized water. All reaction mixtures were brought up to a final reaction volume of 500 μL using deionized water as the diluent. Each reaction mixture was mixed thoroughly, incubated at 22° C. for 48 hr and assayed for iC3b fragment levels. A non-incubated control (-70° C.) was prepared by mixing 1 part EDTA-NHP with 1 part 4M β-D-glucose dissolved in deionized water. This control reaction mixture was stored at -70° C. until it was assayed in the iC3b fragment EIA along with the incubated experimental samples.
Several different polyhydroxyl compounds were individually dissolved in deionized water to obtain solutions of each compound at a concentration approaching saturation at 22° C. Freshly drawn EDTA-NHP was mixed with increasing concentrations of the polyhydroxyl compound to be tested keeping the final reaction volumes constant. For example, 250 μL of freshly drawn EDTA-NHP was mixed with 0 to 250 μL of the concentrated polyhydroxyl solution to be tested. All reaction mixtures were brought up to a final reaction volume of 500 μL using deionized water as the diluent. Each reaction mixture was mixed thoroughly and incubated at 22° C. for 48 hr. A non-incubated control was prepared for each experiment by mixing 1 part EDTA-NHP with 1 part of the concentrated polyhydroxyl solution to be tested. This control mixture was held at -70° C. until it was thawed out, along with the other experimental samples, and assayed for the occurrence of spontaneous complement activation. For this initial set of experiments, iC3b fragment levels were quantitated in all test samples using the Cytotech monoclonal antibody based EIA procedure. The first analyte selected to be measured was iC3b since, based on previously published data as outlined above, it was anticipated that the C3 protein would be the most susceptible to spontaneous activation upon storage of EDTA-NHP in vitro.
All of the EIA tests employed in these studies utilized solid-phase monoclonal antibody capture assay kit procedures (Cytotech, Inc., San Diego, Calif.). The procedure was basically the same for each EIA kit. Briefly, in the first step of each EIA assay, 100 μL of standards, controls and diluted test specimens were incubated at 22° C., i.e., room temperature, in duplicate polystyrene microtiter wells precoated with a capture monoclonal antibody which specifically reacted with the complement fragment or complex under investigation. During this first incubation period, complement fragments or complexes were bound to the monoclonal antibody coated microassay wells. A wash cycle removed unbound materials.
In the second step, 50 μL of horseradish peroxidase (HRP)-conjugated purified IgG antibody, which reacted with the captured complement fragment or complex analyte, was added to each well and incubated at 22° C. A wash cycle removed unbound conjugate.
In the third step, 100 μL of the HRP enzyme substrate ABTS (0.034% ABTS and 0.0126% H2 O2 in 100 mM sodium citrate buffer, pH 4.0) was added to each well and incubated at 22° C. The bound HRP-conjugatedantibody reacted with the ABTS substrate producing a green color which was proportional to the amount of specimen analyte bound. The HRP-enzymatic reaction was stopped upon addition of 50 μL 250 mM oxalic acid. The substrate color intensity present in each well was measured at 405 nm using an automated EIA microplate reader and the analyte concentration/mL in the original test specimen was determined for each analyte from the appropriate standard curve.
iC3b EIA: The capture mouse monoclonal antibody used to coat microtiter wells for the iC3b fragment EIA was Cytotech MoAb 013III-1.1.6.1 which reacts with a neoantigenic determinant expressed on the iC3b activation fragment of human C3.

[7] = test system: coagulation system and fibrin clot formation; conditions: whole blood or plasma; cited from earlier work
[8] = test system: complement system; conditions: plasma or serum; cited from earlier work

sodium heparin
prevention of spontaneous activation of C4 ([1]; heparin alone, 22° C for as long as 24 hr): not sufficient to prevent | time without clear evidence of spontaneous C4 activation ([1]; plasma or whole blood collected in sodium heparin, 1° C. or 22° C.): ≥ 6 h | effect on storage behavior of C3, Factor B, or the terminal complement proteins [2]: does not improve the storage behavior | acceptable range of final concentration at which spontaneous C activation will be prevented [3]: 15-60 IU/mL

OC[C@@H](O)[C@@H](O)[C@H](O)[C@H](O)CO [D-mannitol]
prevention of spontaneous activation of C4 (C4d fragment production) ([4]; final concentration 1.5M): unable to inhibit | prevention of spontaneous activation of C3 ([5]; final concentration 1.5M): ineffective; also recorded: unable to inhibit

OC[C@H]1O[C@H](O[C@H]2O[C@H](CO)[C@@H](O)[C@H](O)[C@H]2O)[C@H](O)[C@@H](O)[C@@H]1O [trehalose]
final concentration that completely prevented spontaneous iC3b fragment production ([6]; compared with -70° C. control): ≥ 1.3 M | spontaneous iC3b fragment production [6]: inhibited with increasing concentrations | final concentration identified as particularly effective [3]: ≥ 1.3 M | range of final concentrations found to provide protection against spontaneous complement activation [3]: 0.6 to 3.5 M

N[C@H]1C(O)O[C@H](CO)[C@@H](O)[C@@H]1O (stereo partly shown) [glucosamine]
prevention of spontaneous activation of C3 ([5]; final concentration 0.5M): ineffective

OC[C@H]1O[C@@H](OC[C@H]2OC(O)[C@H](O)[C@@H](O)[C@@H]2O)[C@H](O)[C@@H](O)[C@@H]1O (stereo partly shown) [gentiobiose]
spontaneous iC3b fragment production [6]: inhibited with increasing concentrations | final concentration identified as particularly effective [3]: ≥ 1.5 M | range of final concentrations found to provide protection against spontaneous complement activation [3]: 1.0 to 4 M

galactose
spontaneous iC3b fragment production [6]: only slight inhibition | prevention of spontaneous activation of C3 ([5]; final concentration 2M): ineffective

OC[C@H]1O[C@H](OC[C@H]2O[C@H](O[C@]3(CO)O[C@H](CO)[C@@H](O)[C@@H]3O)[C@H](O)[C@@H](O)[C@@H]2O)[C@H](O)[C@@H](O)[C@H]1O [D-raffinose]
prevention of spontaneous activation of C4 (C4d fragment production) ([4]; final concentration 1.5M): unable to inhibit | prevention of spontaneous activation of C3 ([5]; final concentration 1.5M): ineffective; also recorded: unable to inhibit

N[C@@H]1C(O)O[C@H](CO)[C@@H](O)[C@@H]1O (stereo partly drawn) [D-mannosamine]
prevention of spontaneous activation of C3 ([5]; final concentration 2M): ineffective

O=C(O)CN(CCN(CC(=O)O)CC(=O)O)CC(=O)O [EDTA, ethylene diamine tetraacetic acid]
acceptable range of final concentration at which spontaneous C activation will be prevented [3]: 1 to 40 mM | final concentration that inhibits activation of the coagulation system and fibrin clot formation [7]: ≥ 1 mM | final concentration that inhibits activation of the complement system [8]: ≥ 1 mM

OC[C@H]1O[C@@](CO)(O[C@H]2O[C@H](CO)[C@@H](O)[C@H](O)[C@H]2O)[C@@H](O)[C@@H]1O [sucrose]
spontaneous iC3b fragment production [6]: inhibited with increasing concentrations | final concentration identified as particularly effective [3]: ≥ 1.75 M | range of final concentrations found to provide protection against spontaneous complement activation [3]: 1.2 to 4 M

OC[C@H]1O[C@H](OC[C@H]2OC(O)[C@H](O)[C@@H](O)[C@@H]2O)[C@H](O)[C@@H](O)[C@H]1O (stereo partly shown) [melibiose]
spontaneous iC3b fragment production [6]: inhibited with increasing concentrations | final concentration identified as particularly effective [3]: ≥ 1.5 M | range of final concentrations found to provide protection against spontaneous complement activation [3]: 0.6 to 4 M

O[C@H]1[C@H](O)[C@@H](O)[C@H](O)[C@@H](O)[C@H]1O [inositol]
prevention of spontaneous activation of C3 ([5]; final concentration 0.5M): ineffective

O=CC[C@H](O)[C@H](O)CO [2-deoxy-D-ribose]
prevention of spontaneous activation of C4 (C4d fragment production) ([4]; final concentration 2M): able to prevent | prevention of spontaneous activation of C3 ([5]; final concentration 2M): ineffective
